Like-named read-outs stand apart in the source and are kept apart here.
Key:
Isolated Rat Portal Vein = assay: Isolated Rat Portal Vein: inhibition of spontaneous contractile activities; assay type: cell-based, Male Sprague Dawley rats; settings: for IC50: Rattus norvegicus, 0.25 h; for times more active than Product A: relative to Product A, isolated rat portal vein
Experimental: Male Sprague Dawley rats (250-300 g) are stunned and then bled after their throats have been cut. The portal vein, ligated in situ at two points 15 mm apart, is isolated, cut longitudinally and then mounted vertically in an experimental cell containing a physiological solution, at 37° C., of the following composition (mmol/l): NaCl:137; KCl: 5.4; MgCl2 : 1.05; CaCl2 : 1.8; NaH2 PO4 : 1.2; NAHCO3 : 15.5; glucose: 11.5, into which a mixture of gases containing 95% of oxygen and 5% of carbon dioxide is bubbled.
The vein is subjected to a tension of 500 mg. After a period of stabilization (about 1 h 30 min), the spontaneous contractile activities are recorded with the aid of an isometric sensor. Each measurement is performed successively on 4 preparations.
The results are expressed in the form of the molar concentration which causes a 50 per cent inhibition of the spontaneous contractile activities (IC50).

[1] = test system: Guinea-pig Papillary Muscle; assay: Guinea-pig Papillary Muscle: ventricular action potential; assay type: cell-based, Male Albino Charles River guinea-pigs; settings: Cavia porcellus, 0.5 h; 36° C., 60 beats per minute, 30 minutes of perfusion per concentration; read-out: Duration of the action potential: IC50 (50 per cent reduction in the duration of the AP)
Experimental: Male Albino Charles River guinea-pigs (300-400 g) are stunned and then bled after their throats have been cut. The heart is isolated and opened and the right papillary muscle is excised and then kept alive in an experimental cell containing a physiological solution at 36° C. (composition described above).
The preparation is stimulated with the aid of a bipolar electrode connected to a stimulator (frequency=60 beats per minute). The ventricular action potential is measured by the conventional microelectrode method. The characteristic parameters were measured on the action potentials (AP) before and after the introduction of the test product at 3 successive increasing concentrations (30 minutes of perfusion per concentration). The concentration which produces a 50 per cent reduction in the duration of the AP is indicated (IC50).

[2] = test system: Vigilant Spontaneously Hypertensive Rats (SHR); assay: Antihypertensive Activity on Vigilant Spontaneously Hypertensive Rats (SHR); assay type: in vivo, male SHR (of the Wistar strain) rats; settings: for duration of action compared with Product A: p.o.
Experimental: The experiment is performed on male SHR (of the Wistar strain) aged between 11 and 12 weeks; under pentobarbital anesthesia, a catheter is implanted in a carotid artery on the day before the experiment. In the experiment, the diastolic pressure (DP) and systolic pressure (SP) of the vigilant animals are recorded continuously 1 hour before and up to 2 hours after administration of the product. The heart rate (HR) is determined from the pulse pressure and recorded continuously for the same time.
The products were administered orally in a volume of 2 ml per 100 g of body weight after suspension in a 5% aqueous solution of gum arabic.

mice = assay: Acute toxicity on mice by oral administration; assay type: in vivo; settings: 1000 mg/kg, 10 mice
Vigilant Dogs = assay: Antiarrhythmic Activity on Vigilant Dogs; assay type: in vivo; settings: orally
Experimental: The method used is that described by Dupuis et al. (Br. J. Pharmacol., 1976, 58, p. 409), in which an acute infarction is caused by the insertion of a copper spiral into the coronary circulation, with the thorax closed off. The electrocardiogram is measured by telemetry and the extrasystoles are analyzed and counted automatically while the animal is being monitored by an internal television circuit. The products were administered orally to animals presenting at least 50 percent of extrasystoles.

[3] = 37° C., 15 min per concentration, read-out: IC50 of the spontaneous contractile activities of isolated rat portal vein
[4] = unit inferred, read-out: IC50 values equal to or less than (isolated rat portal vein)

Row | IC50 (Isolated Rat Portal Vein; [3]) [nM] | IC50 (Isolated Rat Portal Vein; [4]) [nM] | Compound | IC50 [1] [nM] | Maximum decrease in mean blood pressure (±s.e.) ([2]; 0.03 mg/kg p.o.) | Maximum decrease in mean blood pressure (±s.e.) ([2]; 0.10 mg/kg p.o.) | times more active than Product A (Isolated Rat Portal Vein) | also measured
1 | 77 |  | CC1(C)Oc2ccc(C#N)cc2[C@@H](n2ccncc2=O)[C@@H]1O (relative stereo) [SR 45 067] |  |  |  |  | 
2 | 80 |  | Cc1ccn([C@@H]2c3cc(C#N)ccc3OC(C)(C)[C@H]2O)c(=O)c1 (relative stereo) [SR 45 135] |  |  |  |  | 
3 | 58 |  | Cc1cc(O)nn([C@@H]2c3cc(C#N)ccc3OC(C)(C)[C@H]2O)c1=O (relative stereo) [SR 45 209, trans-6-Cyano-4-(I,6-dihydro-3-hydroxy-5-methyl-6-oxopyridazin-1-yl)-2,2-dimethylchroman-3-ol] |  |  |  |  | 
4 | 20 | ≤ 34 | Cc1cc(=O)n([C@@H]2c3cc(C#N)ccc3OC(C)(C)[C@H]2O)nc1O (relative stereo) [SR 45 218, trans-6-Cyano-4-(I,6-dihydro-3-hydroxy-4-methyl-6-oxopyridazin-1-yl)-2,2-dimethylchroman-3-ol] |  |  |  | at least 5 times | 
5 | 88 |  | Cc1ccc(=O)n([C@@H]2c3cc(C#N)ccc3OC(C)(C)[C@H]2O)n1 (relative stereo) [SR 45 225, trans-6-Cyano-4-(I,6-dihydro-3-methyl-6-oxopyridazin-1-yl)-2,2-dimethylchroman-3-ol] |  |  |  |  | 
6 | 50 |  | CC1(C)Oc2ccc(C#N)cc2[C@@H](n2ccc(F)cc2=O)[C@@H]1O (relative stereo) [SR 45 311, trans-6-Cyano-4-(1,2-dihydro-4-fluoro-2-oxopyrid-1-yl)-2,2-dimethylchroman-3-ol] |  |  |  |  | 

Second part, the compound before the results:

Row | Compound | IC50 (Isolated Rat Portal Vein; [3]) [nM] | IC50 (Isolated Rat Portal Vein; [4]) [nM] | IC50 [1] [nM] | Maximum decrease in mean blood pressure (±s.e.) ([2]; 0.03 mg/kg p.o.) | Maximum decrease in mean blood pressure (±s.e.) ([2]; 0.10 mg/kg p.o.) | times more active than Product A (Isolated Rat Portal Vein) | also measured
7 | CC1(C)Oc2ccc(C#N)cc2[C@@H](N2CCCC2=O)[C@@H]1O (relative stereo) [Product A, trans-6-Cyano-4-(2-oxopyrrolidin-1-yl)-2,2-dimethylchroman-3-ol, reference compound] | 68 |  | 16000 | 16 ± 5 mm of mercury | 30 ± 10 mm of mercury |  | acute toxicity: survival / death of the animals (mice): all 10 animals died
8 | CC1(C)Oc2ccc(C#N)cc2[C@@H](n2ccccc2=O)[C@@H]1O (relative stereo) [SR 44 709, trans-6-Cyano-4-(I,2-dihydro-2-oxopyrid-1-yl)2,2-dimethylchroman-3-ol] | 90 |  | 20000 |  | 39 ± 12 mm of mercury |  | Maximum decrease in mean blood pressure (±s.e.) ([2]; 0.06 mg/kg p.o.): 21 ± 5 mm of mercury; antiarrhythmic activity (reducing the number of extrasystoles or restoring a sinus rhythm) (Vigilant Dogs; 1 mg/kg): substantial antiarrhythmic activity; acute toxicity: survival / death of the animals (mice): all the animals survived
9 | CC1(C)Oc2ccc(C#N)cc2[C@@H](n2ncccc2=O)[C@@H]1O (relative stereo) [SR 44 758, trans-6-Cyano-4-(1,6-dihydro-6-oxopyridazin-1-yl)-2,2-dimethylchroman-3-ol] | 130 |  |  | 12 ± 2 mm of mercury | 33 ± 5 mm of mercury |  | 
10 | CC1(C)Oc2ccc(C#N)cc2[C@@H](n2ccc(O)cc2=O)[C@@H]1O (relative stereo) [SR 44 793, trans-6-Cyano-4-(I,2-dihydro-4-hydroxy-2-oxopyrid-1-yl)-2,2-dimethylchroman-3-ol] | 34 | ≤ 34 | 2700 | 22 ± 2 mm of mercury | 50 ± 9 mm of mercury | at least 5 times | Maximum decrease in mean blood pressure (±s.e.) ([2]; 0.06 mg/kg p.o.): 26 ± 3 mm of mercury; duration of action compared with Product A [2]: longer duration of action than Product A; antiarrhythmic activity (reducing the number of extrasystoles or restoring a sinus rhythm) (Vigilant Dogs; between 0.1 and 0.5 mg/kg): substantial antiarrhythmic activity
11 | CC1(C)Oc2ccc(C#N)cc2[C@@H](n2nc(O)ccc2=O)[C@@H]1O (relative stereo) [SR 44 994, trans-6-Cyano-4-(I,6-dihydro-3-hydroxy-6-oxopyridazin-1-yl)-2,2-dimethylchroman-3-ol] | 9 | ≤ 34 | 4000 | 14 ± 0 mm of mercury | 37 ± 4 mm of mercury | at least 5 times | duration of action compared with Product A [2]: longer duration of action than Product A
12 | CC1(C)Oc2ccc(C#N)cc2[C@@H](n2ccc(Cl)cc2=O)[C@@H]1O (relative stereo) [SR 45 012] | 26 | ≤ 34 |  |  |  | at least 5 times | 

Source: US5284838A, “Use of 2,2-dimethylchroman-3-ol derivatives in the treatment of asthma” (Elf Sanofi, priority 1987, dated 1994)
